# The supplement of paper PMC10307832
# Columns and labels:
# Assay in all cases: relative viability (nuclei count vs DMSO), 5 days (fraction); higher = more cells survive
# NCI-H647 = tested on: NCI-H647
# Procedure, shortened: (§1)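 Relative viability divides the nuclei count in treated wells by that in vehicle wells. Lung cancer cell lines were seeded in 1536-well plates, dosed by pin tool the next day, and fixed and stained after 5 days in one step with final 0.05% Triton X-100, 1% formaldehyde and 1 ug/ml Hoechst. Dosing was a single drug or a fixed anchor-drug dose plus five library-drug doses (not always all listed) in √10 steps, and values are medians of duplicate plates imaged at 4×.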
# NCI-H358 = tested on: NCI-H358
# Procedure, shortened: as §1
# EPLC-272H = tested on: EPLC-272H
# Procedure, shortened: as §1
# A-427 = tested on: A-427
# Procedure, shortened: as §1
# LK-2 = tested on: LK-2
# Procedure, shortened: as §1
# NCI-H460 = tested on: NCI-H460
# Procedure, shortened: as §1
# NCI-H2405 = tested on: NCI-H2405
# Procedure, shortened: as §1
# NCI-H1755 = tested on: NCI-H1755
# Procedure, shortened: as §1
# RERF-LC-KJ = tested on: RERF-LC-KJ
# Procedure, shortened: as §1
# SW 900 = tested on: SW 900
# Procedure, shortened: as §1
# NCI-H1734 = tested on: NCI-H1734
# Procedure, shortened: as §1
# LU99A = tested on: LU99A
# Procedure, shortened: as §1
# ChaGo-K-1 = tested on: ChaGo-K-1
# Procedure, shortened: as §1
# EMC-BAC-2 = tested on: EMC-BAC-2
# Procedure, shortened: as §1
# NCI-H596 = tested on: NCI-H596
# Procedure, shortened: as §1
# NCI-H1792 = tested on: NCI-H1792
# Procedure, shortened: as §1
# NCI-H1650 = tested on: NCI-H1650
# Procedure, shortened: as §1
# NCI-H1993 = tested on: NCI-H1993
# Procedure, shortened: as §1
# NCI-H522 = tested on: NCI-H522
# Procedure, shortened: as §1
# EKVX = tested on: EKVX
# Procedure, shortened: as §1
# HARA = tested on: HARA
# Procedure, shortened: as §1
# COR-L 105 = tested on: COR-L 105
# Procedure, shortened: as §1
compound,measurement,setting,value
CCNC(=O)c1noc(-c2cc(C(C)C)c(O)cc2O)c1-c1ccc(CN2CCOCC2)cc1 [Luminespib] + Cc1nc(Nc2ncc(C(=O)Nc3c(C)cccc3Cl)s2)cc(N2CCN(CCO)CC2)n1 [Dasatinib] (partner 0.075 µM),relative viability,NCI-H647; first compound 0.002 µM,0.199
same,relative viability,NCI-H647; first compound 0.006325 µM,0.13
same,relative viability,NCI-H647; first compound 0.02 µM,0.13
same,relative viability,NCI-H647; first compound 0.06325 µM,0.0549
same,relative viability,NCI-H647; first compound 0.2 µM,0.0598
same,relative viability,NCI-H358; first compound 0.002 µM,0.149
same,relative viability,NCI-H358; first compound 0.006325 µM,0.164
same,relative viability,NCI-H358; first compound 0.02 µM,0.0956
same,relative viability,NCI-H358; first compound 0.06325 µM,0.0558
same,relative viability,NCI-H358; first compound 0.2 µM,0.0633
same,relative viability,EPLC-272H; first compound 0.002 µM,0.365
same,relative viability,EPLC-272H; first compound 0.006325 µM,0.349
same,relative viability,EPLC-272H; first compound 0.06325 µM,0.35
same,relative viability,EPLC-272H; first compound 0.2 µM,0.0778
same,relative viability,A-427; first compound 0.002 µM,0.779
same,relative viability,A-427; first compound 0.006325 µM,0.671
same,relative viability,A-427; first compound 0.02 µM,0.483
same,relative viability,A-427; first compound 0.06325 µM,0.33
same,relative viability,A-427; first compound 0.2 µM,0.128
same,relative viability,LK-2; first compound 0.002 µM,0.267
same,relative viability,LK-2; first compound 0.006325 µM,0.293
same,relative viability,LK-2; first compound 0.02 µM,0.251
same,relative viability,LK-2; first compound 0.06325 µM,0.146
same,relative viability,LK-2; first compound 0.2 µM,0.128
same,relative viability,NCI-H460; first compound 0.002 µM,0.462
same,relative viability,NCI-H460; first compound 0.006325 µM,0.481
same,relative viability,NCI-H460; first compound 0.02 µM,0.251
same,relative viability,NCI-H460; first compound 0.06325 µM,0.0185
same,relative viability,NCI-H460; first compound 0.2 µM,0.0168
same,relative viability,NCI-H2405; first compound 0.002 µM,0.226
same,relative viability,NCI-H2405; first compound 0.006325 µM,0.182
same,relative viability,NCI-H2405; first compound 0.02 µM,0.178
same,relative viability,NCI-H2405; first compound 0.06325 µM,0.164
same,relative viability,NCI-H2405; first compound 0.2 µM,0.138
same,relative viability,NCI-H1755; first compound 0.002 µM,0.394
same,relative viability,NCI-H1755; first compound 0.006325 µM,0.472
same,relative viability,NCI-H1755; first compound 0.02 µM,0.455
same,relative viability,NCI-H1755; first compound 0.06325 µM,0.258
same,relative viability,NCI-H1755; first compound 0.2 µM,0.119
same,relative viability,RERF-LC-KJ; first compound 0.002 µM,0.833
same,relative viability,RERF-LC-KJ; first compound 0.006325 µM,0.897
same,relative viability,RERF-LC-KJ; first compound 0.02 µM,0.603
same,relative viability,RERF-LC-KJ; first compound 0.06325 µM,0.232
same,relative viability,RERF-LC-KJ; first compound 0.2 µM,0.234
same,relative viability,SW 900; first compound 0.002 µM,0.741
same,relative viability,SW 900; first compound 0.006325 µM,0.722
same,relative viability,SW 900; first compound 0.02 µM,0.227
same,relative viability,SW 900; first compound 0.06325 µM,0.0874
same,relative viability,SW 900; first compound 0.2 µM,0.109
same,relative viability,NCI-H1734; first compound 0.002 µM,0.552
same,relative viability,NCI-H1734; first compound 0.006325 µM,0.419
same,relative viability,NCI-H1734; first compound 0.02 µM,0.314
same,relative viability,NCI-H1734; first compound 0.06325 µM,0.117
same,relative viability,NCI-H1734; first compound 0.2 µM,0.106
same,relative viability,LU99A; first compound 0.002 µM,0.658
same,relative viability,LU99A; first compound 0.006325 µM,0.406
same,relative viability,LU99A; first compound 0.02 µM,0.377
same,relative viability,LU99A; first compound 0.06325 µM,0.0593
same,relative viability,LU99A; first compound 0.2 µM,0.0775
same,relative viability,ChaGo-K-1; first compound 0.002 µM,0.634
same,relative viability,ChaGo-K-1; first compound 0.006325 µM,0.648
same,relative viability,ChaGo-K-1; first compound 0.02 µM,0.539
same,relative viability,ChaGo-K-1; first compound 0.06325 µM,0.376
same,relative viability,ChaGo-K-1; first compound 0.2 µM,0.143
same,relative viability,EMC-BAC-2; first compound 0.002 µM,0.355
same,relative viability,EMC-BAC-2; first compound 0.006325 µM,0.351
same,relative viability,EMC-BAC-2; first compound 0.02 µM,0.312
same,relative viability,EMC-BAC-2; first compound 0.06325 µM,0.395
same,relative viability,EMC-BAC-2; first compound 0.2 µM,0.172
same,relative viability,NCI-H596; first compound 0.002 µM,0.529
same,relative viability,NCI-H596; first compound 0.006325 µM,0.614
same,relative viability,NCI-H596; first compound 0.02 µM,0.426
same,relative viability,NCI-H596; first compound 0.06325 µM,0.479
same,relative viability,NCI-H596; first compound 0.2 µM,0.511
same,relative viability,NCI-H1792; first compound 0.002 µM,0.737
same,relative viability,NCI-H1792; first compound 0.006325 µM,0.619
same,relative viability,NCI-H1792; first compound 0.02 µM,0.722
same,relative viability,NCI-H1792; first compound 0.06325 µM,0.361
same,relative viability,NCI-H1792; first compound 0.2 µM,0.242
same,relative viability,NCI-H1650; first compound 0.002 µM,0.326
same,relative viability,NCI-H1650; first compound 0.006325 µM,0.252
same,relative viability,NCI-H1650; first compound 0.02 µM,0.162
same,relative viability,NCI-H1650; first compound 0.06325 µM,0.192
same,relative viability,NCI-H1650; first compound 0.2 µM,0.168
same,relative viability,NCI-H1993; first compound 0.002 µM,0.633
same,relative viability,NCI-H1993; first compound 0.006325 µM,0.534
same,relative viability,NCI-H1993; first compound 0.02 µM,0.431
same,relative viability,NCI-H1993; first compound 0.06325 µM,0.331
same,relative viability,NCI-H1993; first compound 0.2 µM,0.353
same,relative viability,NCI-H522; first compound 0.002 µM,1.1
same,relative viability,NCI-H522; first compound 0.006325 µM,0.936
same,relative viability,NCI-H522; first compound 0.02 µM,0.776
same,relative viability,NCI-H522; first compound 0.06325 µM,0.577
same,relative viability,NCI-H522; first compound 0.2 µM,0.481
same,relative viability,EKVX; first compound 0.002 µM,0.311
same,relative viability,EKVX; first compound 0.006325 µM,0.509
same,relative viability,EKVX; first compound 0.02 µM,0.403
same,relative viability,EKVX; first compound 0.06325 µM,0.515
same,relative viability,EKVX; first compound 0.2 µM,0.393
same,relative viability,HARA; first compound 0.002 µM,0.224
same,relative viability,HARA; first compound 0.006325 µM,0.279
same,relative viability,HARA; first compound 0.02 µM,0.205
same,relative viability,HARA; first compound 0.06325 µM,0.0633
same,relative viability,HARA; first compound 0.2 µM,0.0774
same,relative viability,COR-L 105; first compound 0.002 µM,0.344
same,relative viability,COR-L 105; first compound 0.006325 µM,0.322
same,relative viability,COR-L 105; first compound 0.02 µM,0.248
same,relative viability,COR-L 105; first compound 0.06325 µM,0.157
same,relative viability,COR-L 105; first compound 0.2 µM,0.145
